The text below walks through data of patent publication US20230390273A1, “4-PHENYL-TETRAHYDROPYRIDINE DERIVATIVES FOR TREATING HEARING DISEASES” (CILCARE DEV, priority 2021, published 2023).

Holding throughout (format): in vivo, male Wistar rats
For data set [1], the system named is synaptic ribbons in inner hair cells. Briefly: Ribbon synapse immunostaining and counting in cochlea, immediate treatment (Example 6). Particulars: 2 hours and 8 days post-noise. How it is done: At T+28DAYS, after DPOAE/ABR measures, 10 cochleae (all eight (8) left cochleae and two (2) right cochleae taken randomly) per group were rapidly sampled and immediately fixed by PFA perfusion (through the round and oval windows with PFA 4% after creating a small hole at the apex) in order to performed ribbon synapse immunostaining and analysis. Cochleae were fixed for 1 hour in a 4% PFA solution and decalcified in undiluted RDO (10 mL/cochlea for a minimum of 2 hours). The membranous and sensory spiral containing the organ of Corti are dissected out as a flat surface preparation under a dissecting microscope and immunolabelled with appropriate antibodies: • Vglut3 (Vglut3-Guinea Pig IgG; #135 204, Synaptic systems and Anti-Guinea Pig IgG (H+L), #A21450; Thermo Fisher Scientific 647 nm Far-Red) to stain inner hair cell bodies (vesicular glutamate transporter). • Homer (Homer-Rabbit IgG; #GTX103278; Genetex and Anti-Rabbit IgG (H+L) #A11008 Thermo Fisher Scientific 568 nm Red) to stain dendritic proteins of auditory nerve fibers connecting to IHC (post-synaptic). • CtBP2 (CtBP2-Mouse-IgG1; #612044; BD Transduction Laboratories and Anti-Mouse IgG1, #A21121, Thermo Fisher Scientific 488 Green) to stain the ribeye protein as pre-synaptic marker in IHC. • Phalloidin (Alexa Fluor™ Plus 405 Phalloidin; #A30104; Thermo Fisher Scientific 405 Blue).
Images were acquired on a confocal microscope and the slides were analyzed to i) evaluate by visual observation the presence of OHC (outer hair cells) and IHC (inner hair cells) (based on nuclei staining with CtBP2 and HC cell body staining with phalloidin) and ii) count the number of synaptic ribbons in selected inner hair cells in cochlea regions coding sound of selected frequency (16 kHz, 25 kHz and 32 kHz).
The number of pre- (CtBP2) and post-synaptic (Homer) labeled spots was counted using Imaris software in 3 dimensions for each image. Co-localization of pre- and post-synaptic elements was defined as a distance of maximum […] between CtBP2- and Homer-labeled spots, using an in-house Matlab program to calculate the distances between CtBP2 and Homer labels from the x, y, and z coordinates.

Data set [2] in a line: Plasma and inner ear fluid exposure after single trans-tympanic injection in thermoreversible hydrogel composition (Example 4). Particulars: for concentration at 1 h: T0 + 1 hour; for concentration at 24 h: T0 + 24 hours. How it is done: Composition 4P and composition 4X as described in example 2 were administered to male Wistar rats (5 animals per active agent and timepoint), as described below.
At time T0, 30 μL of composition 4P were administered to 15 rats, in a single ear via trans-tympanic injection. The dose of paliroden fumarate that has been administered is thus of 300 μg in one ear of each rat.
At time T0, 30 μL of composition 4X were administered to 15 other rats, in a single ear via trans-tympanic injection. The dose of xaliproden hydrochloride that has been administered is thus of 150 μg in one ear of each rat.
For the 15 rats that have received composition 4P and for the 15 rats that have received composition 4X, plasmatic and inner ear expositions were determined via blood and cochlea terminal sampling in order to achieve lithium-heparin plasma and inner ear fluid preparation, at T+1 hour, T+24 hours and T+168 hours. Bioanalytical methods were validated in both matrices (lithium heparin plasma and inner ear fluid) with a range of 0.2 to 815 ng/mL for paliroden (fumarate salt) and 0.38 to 763 ng/mL for xaliproden (hydrochloride salt).

A short description of data set [3]: Plasma and inner ear fluid exposure after single oral gavage (Example 1). Particulars: male, Wistar, single oral 20 mg/kg; for concentration at 2 h: T0 + 2 hours; for concentration at 4 h: T0 + 4 hours; for concentration at 24 h: T0 + 24 hours. How it is done:
Two compositions were prepared: composition A and composition B.
Composition A is an aqueous solution comprising: • 6 mg/mL (free base equivalent) of fumarate salt of 1-[2-(4-biphenylyl)ethyl]-4-(3-trifluoromethylphenyl)-1,2,3,6-tetrahydropyridine (=paliroden fumarate), and • 0.6% w/v of methylcellulose with respect to the total volume of the aqueous solution.
Composition B is an aqueous solution comprising: • 4 mg/mL (free base equivalent) of hydrochloride salt of 1-[2-(2-naphthyl)ethyl]-4-(3-trifluoromethylphenyl)-1,2,3,6-tetrahydropyridine (=xaliproden hydrochloride), and • 10% w/v of arabic gum with respect to the total mass of the aqueous solution.
Composition A and composition B were administered to male Wistar rats (5 animals per active agent and timepoint), as described below.
Composition A was administered to 15 male Wistar rats, once, at time TO, via oral injection by gavage, at a dose of 5 mL of composition A per kilogram of the animal, i.e. a dose of 30 mg of paliroden fumarate per kilogram of the animal. The concentration of paliroden in rats plasma and in rats inner ear fluid (IEF) was measured at 6 timepoints, 5 rats being used at each timepoint for the concentration measurements (in the plasma and optionally in the IEF). The timepoints are T0+1 hour, T0+2 hours, T0+4 hours, T0+6 hours, T0+8 hours and T0+24 hours for the concentration measurement in the rats plasma. The timepoints are T0+2 hours, T0+4 hours and T0+24 hours for the concentration measurement in the rats inner ear fluid, as part of a terminal procedure including cochlea sampling and inner ear fluids collection from both ears of the rats. Bioanalytical methods were validated in both matrices (lithium heparin plasma and inner ear fluid) with a range of 0.25 to 500 ng/mL in plasma and 0.25 to 100 ng/mL in inner ear fluids.
Composition B was administered to 15 others male Wistar rats, once, at time T0, via oral injection by gavage, at a dose of 5 mL of composition B per kilogram of the animal, i.e. a dose of 20 mg of xaliproden hydrochloride per kilogram of the animal. The concentration of xaliproden in rats plasma and in rats inner ear fluid (IEF) was measured at 6 timepoints, 5 rats being used at each timepoint for the concentrations measurements (in the plasma and optionally in the IEF). The timepoints are T0+1 hour, T0+2 hours, T0+4 hours, T0+6 hours, T0+8 hours and T0+24 hours for the concentration measurement in the rats plasma. The timepoints are T0+2 hours, T0+4 hours and T0+24 hours for the concentration measurement in the rats inner ear fluid, as part of a terminal procedure including cochlea sampling and inner ear fluids collection from both ears of the rats. Bioanalytical methods were validated in both matrices (lithium heparin plasma and inner ear fluid) with a range of 0.25 to 500 ng/mL in plasma and 0.25 to 500 ng/mL in inner ear fluids.

Setting [4] is: male, Wistar, plasma, other: trans-tympanic injection, 150 μg in one ear, rat, trans-tympanic 150 μg one ear, suspension in thermoreversible hydrogel, read-out: Concentration of xaliproden (hydrochloride salt), Plasma, Mean.
Setting [5] is: plasma, rat, read-out: Concentration of xaliproden (hydrochloride salt), Plasma, Mean.
Setting [6] is: rat inner ear fluid, read-out: Concentration of xaliproden (hydrochloride salt), IEF, Mean.

Where a name gives a salt, the structure may show the parent alone. Read-outs that look alike come from different tables or passages of the source.

Take `FC(F)(F)c1cccc(C2=CCN(CCc3ccc4ccccc4c3)CC2)c1` [xaliproden (hydrochloride salt), 1-[2-(2-naphthyl)ethyl]-4-(3-trifluoromethylphenyl)-1,2,3,6-tetrahydropyridine]: the “Number of pre-synaptic elements CtBP2 per IHC” value in data set [1] (25 kHz and 32 kHz, vs traumatized vehicle group) is recorded as “increase”. Further, the “Number of colocalized ribbons per IHC” value in data set [1] (25 kHz, vs traumatized vehicle group, paliroden 300 μg/ear, xaliproden 150 μg/ear) is recorded as “increase”. The “Synapse loss in the inner hair cells” value in data set [1] (regions coding high frequency sounds) is given as “tend to repair synapse loss”. Also, the concentration at 7 days in data set [2] (male, Wistar, inner ear fluid, other: trans-tympanic injection, rat, trans-tympanic injection, thermoreversible hydrogel, 7 days, read-out: Concentrations in the inner ear fluid at 7 days post injection) is around 100 ng/mL. Moreover, the concentration at 1 h is 5610 ng/mL in data set [2] (male, Wistar, other: trans-tympanic injection, 150 μg in one ear, rat inner ear fluid, trans-tympanic 150 μg, thermoreversible hydrogel, n = 4, read-out: Concentration of xaliproden (hydrochloride salt), IEF, Mean); 4.9 ng/mL in data set [2] (setting [4]); 44.1 ng/mL in data set [3] (plasma, rat, T0 + 1 hour, read-out: Concentration of xaliproden (hydrochloride salt), Plasma, Mean). For the same compound, the concentration at 24 h in data set [2] (male, Wistar, other: trans-tympanic injection, 150 μg in one ear, rat inner ear fluid, trans-tympanic 150 μg, thermoreversible hydrogel, read-out: Concentration of xaliproden (hydrochloride salt), IEF, Mean) was found to be 108 ng/mL; in data set [2] (setting [4]), 9.2 ng/mL; in data set [3] (setting [5]), 44.1 ng/mL; in data set [3] (setting [6]) it was 16 ng/mL. Further, the concentration at 168 h in data set [2] (male, Wistar, other: trans-tympanic injection, 150 μg in one ear, rat inner ear fluid, trans-tympanic 150 μg, thermoreversible hydrogel, T0 + 168 hours, read-out: Concentration of xaliproden (hydrochloride salt), IEF, Mean) was 117 ng/mL. For the same compound, the “Concentration of xaliproden (hydrochloride salt), Plasma, Mean” value in data set [2] (rat, trans-tympanic 150 μg one ear, suspension in thermoreversible hydrogel, T0 + 168 hours) was “BLQ”. Further, in data set [2] (rat, trans-tympanic injection, suspension in thermoreversible hydrogel, summary), the “High concentrations rapidly reached in the inner ear fluid” value was “approximately 5000 ng/mL”. Further, the “High concentrations rapidly reached in the IEF (molar)” value in data set [2] (rat, trans-tympanic injection, thermoreversible hydrogel, approximate conversion) was “approximately 10 μM”. In addition, the concentration at 2 h in data set [3] (setting [5]) worked out at 58 ng/mL; in data set [3] (setting [6]), 19.4 ng/mL. Also, the concentration at 4 h in data set [3] (setting [5]) turned out to be 25.1 ng/mL; in data set [3] (setting [6]), 21.7 ng/mL. The concentration at 6 h in data set [3] (plasma, rat, T0 + 6 hours, read-out: Concentration of xaliproden (hydrochloride salt), Plasma, Mean) turned out to be 28.4 ng/mL. In addition, the concentration at 8 h in data set [3] (plasma, rat, T0 + 8 hours, read-out: Concentration of xaliproden (hydrochloride salt), Plasma, Mean) was found to be 23.4 ng/mL.
